The values that follow come from patent publication US8592172B2, “Bioluminescent assays using cyanobenzothiazole compounds” (Promega Corporation, priority 2010, dated 2013).

For series [1], the system named is UGT activity in human liver microsomes (HLM). The series can be described thus: Inhibition of UGT activity in human liver microsomes, compound 3138 as substrate. In kind it is biochemical. The settings on record: 50 μM compound 3138, 0.1 mg/mL HLM, 15 minutes at 37° C.; read-out: IC50 for HLM utilization of compound 3138. The procedure:
To assess the ability of these compounds to inhibit UGT activity in HLM, reactions were set up as follows. […] Sulfinpyrazone, quinidine, and androsterone were used at a final concentration of 0.5 mM. 1-Naphthol, scopoletin, umbelliferne, and 7-hydroxy-4-trifluoromethyl coumarin were used at a final concentration of 1 mM. […] Valproate was used at a final concentration of 10 mM. All reactions were compared to their corresponding vehicle control sample containing either water, DMSO, or ethanol.
In general terms: Liver microsomes are vesicles of endoplasmic reticulum, rich in cytochrome P450 enzymes.

Series [2] has as its system UGT isozymes in human hepatocytes. Particulars: diclofenac, 15-20 minutes at 37° C.
The test system of a further series is UGT isozymes. The settings on record: UGT isozymes currently reported in the literature; cited from earlier work.
A further series deals with T1, UGT 1A1 (Homo sapiens, UniProt P22309).
T1 construct: purchased BD Gentest; host or cells: insect cells (microsomes)
T1 sequence (P22309 26-533): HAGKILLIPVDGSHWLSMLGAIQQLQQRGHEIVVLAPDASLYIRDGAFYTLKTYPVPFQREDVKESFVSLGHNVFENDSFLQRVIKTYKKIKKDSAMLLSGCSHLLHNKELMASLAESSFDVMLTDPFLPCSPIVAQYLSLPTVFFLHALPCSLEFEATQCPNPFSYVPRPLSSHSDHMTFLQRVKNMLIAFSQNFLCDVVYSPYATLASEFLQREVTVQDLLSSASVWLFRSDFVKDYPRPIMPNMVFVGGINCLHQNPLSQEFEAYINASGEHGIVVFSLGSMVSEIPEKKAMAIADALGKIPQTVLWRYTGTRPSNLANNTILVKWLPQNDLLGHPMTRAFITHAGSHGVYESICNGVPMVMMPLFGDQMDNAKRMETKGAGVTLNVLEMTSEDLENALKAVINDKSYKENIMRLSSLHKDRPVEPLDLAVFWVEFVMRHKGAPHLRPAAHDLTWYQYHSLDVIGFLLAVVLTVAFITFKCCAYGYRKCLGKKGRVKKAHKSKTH
The series can be described thus: Inhibition of recombinant UGT 1A1 Supersomes, compound 3138 as substrate. In kind it is biochemical. The settings on record: 20 μM compound 3138, 0.1 mg/mL Supersomes, 90 minutes at 37° C.

In series [3] the test system is CYP1A2. The series can be described thus: Non-lytic cell-based assay with human hepatocytes, compound 3019. The settings on record: 100 μM omeprazole 48 hours, 3 μM compound 3019. The method, then: Human cryopreserved hepatocytes (Celsis lot RTM) were thawed and seeded in hepatocyte culture medium in wells of a collagen-coated, 96-well culture plate at ˜70,000 cells per well and kept at 37° C. in standard cell culture incubator with 5% CO2. The cells were then treated for 48 hours with 100 μM omeprazole or vehicle control (0.1% dimethylsulfoxide) dissolved in hepatocytes culture medium (n═3 for each treatment, mean values and standard deviations are shown). […] 50 μl of the KH incubation buffer was then removed from each well and transferred to a well of a white, 96-well luminometer plate (Costar) where it was also combined with 50 μl of P450-Glo LDR containing 6.6 mM D-cysteine.

Series [4] deals with CYP1A2. Nature of the series: Multiplex human hepatocyte assay, CYP1A2 detected with compound 3019. In kind it is cell-based. The settings on record: human hepatocytes, 100 μM omeprazole 48 hours. The method, then:
For detection of CYP3A4, the luciferin acetal derivative, Luciferin-IPA (Luc-IPA), was used with bioluminescence detected using LDR without D-cysteine.
Human cryopreserved hepatocytes (Celsis In Vitro Technologies) were thawed and seeded in hepatocyte culture medium in wells of a collagen-coated, 96-well culture plate at ˜50,000 cells per well and kept at 37° C. in standard cell culture incubator with 5% CO2. […] The plate was then removed from the incubator. Fifty μl from each intact cell supernatant was transferred to two-set wells of a white, 96-well luminometer plate (Costar). To one set of wells, 50 μl of LDR with 4 mM D-cysteine was added, while 50 μl of LDR without D-cysteine was added to the other set.

Procedure for UGT 1A1: Following the UGT enzyme reaction, an equal volume of P450-Glo Luciferin Detection Reagent (LDR) (Promega) containing 15-30 mM D-cysteine-HCl.H2O (Sigma) was added and the plate was mixed and incubated at room temperature, typically for 20-30 minutes. P450-Glo Luciferin Detection Reagent contains a luciferase reaction mixture that includes a recombinant firefly luciferase, ATP and Mg^2+.
After 2 hours at 37° C., 10 μL of 50 mM D-cysteine-HCl.H2O diluted in 200 mM HEPES, pH 8.0 was added to each 40 μL UGT reaction. After 10 minute incubations, 50 μL P450-Glo LDR (Promega) was added to each well, and bioluminescence was measured.
After 90 minutes at 37° C., 40 μL of P450-Glo LDR plus 20 mM D-cysteine was added to each 40 μL reaction and mixed. After 20 minutes at room temperature, bioluminescence was measured on a luminometer.

By IC50 is commonly meant the concentration that inhibits the measured activity by half. With `O=C(O)Cc1ccccc1Nc1c(Cl)cccc1Cl` [Diclofenac], the results for the IC50 (in series [1]; at UGT 1A1) were 60 µM and 232 µM, respectively. Besides, the “inhibition of compound 3138 conversion in hepatocytes” value in series [2] is on record as “inhibited”. Further, the “Isozymes Modulated” value with UGT isozymes was “Inhibits most isozymes”.
As for `COc1ccc2[nH]c([S+]([O-])Cc3ncc(C)c(OC)c3C)nc2c1` (stereo not shown) [omeprazole], the “change of signal versus vehicle (CYP1A2 induction)” value in the series with CYP1A2 [3] was “significantly increased”. Moreover, the “induction of CYP1A2 activity” value in the series on CYP1A2 [4] (compound 3019 alone (FIG. 34A)) and in the series on CYP1A2 [4] (compound 3019 in the presence of Luciferin-IPA (FIG. 34C)) was “induction of CYP1A2 activity” throughout.
